Results on 13 compounds are retold here after PubChem BioAssay (NCI).

Test systems include CCRF-CEM leukemia; COLO 205 colon; M14 melanoma; SF-295 CNS; SN12C renal; OVCAR-8 ovarian; HCT-116 colon; IGROV1 ovarian; DU-145 prostate; U251 CNS.
Assay in all cases: NCI anticancer screen, dose series, 48 h

Each structure is given as a SMILES string.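 How tested: cells in 96-well plates exposed to compound for 48 hours at five concentrations. Here, GI50 denotes the concentration required for 50% inhibition of growth. TGI: total growth inhibition.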

For `O=C(/C=C/c1ccccc1)NNC(=O)c1c(Cl)c(Cl)c(Cl)c(Cl)c1-c1nc2ccccc2[nH]1`, the TGI in the assay with CCRF-CEM leukemia was 75.8 µM; in the assay on COLO 205 colon it was 33.2 µM; in the assay on M14 melanoma it was 83.5 µM; in the assay on SF-295 CNS, over 100 µM; with SN12C renal, 63.4 µM; in the assay on OVCAR-8 ovarian, over 100 µM. Further, the TGI was 53.6 µM in the assay with HCT-116 colon, 45.6 µM in the assay on IGROV1 ovarian and over 100 µM in the assay with DU-145 prostate.

Turning to `O=C(C[n+]1ccc2ccccc2c1)c1ccc2ccc3ccccc3c2c1`, the TGI is 14.6 µM with U251 CNS; 4.78 µM in the assay on CCRF-CEM leukemia; 3.87 µM in the assay with COLO 205 colon; 10.6 µM in the assay with M14 melanoma; 16.4 µM with SF-295 CNS; 14.7 µM in the assay on SN12C renal. Also, the TGI in the assay with OVCAR-8 ovarian came out at 19.8 µM; in the assay on HCT-116 colon, 13.6 µM; with IGROV1 ovarian it was 17.2 µM; in the assay with DU-145 prostate, 21.3 µM.

Take `O=c1[nH]nc(NNc2ccccc2)c2nnn(C3CCCCC3)c12`: the TGI in the assay on U251 CNS, in the assay on CCRF-CEM leukemia, in the assay with COLO 205 colon, in the assay with M14 melanoma, with SF-295 CNS and in the assay with SN12C renal was over 100 µM in each case. The TGI in the assay with OVCAR-8 ovarian, in the assay with HCT-116 colon and in the assay with DU-145 prostate was over 100 µM each time.

Take `CCOC(=O)C1=NN(c2ccc(C)cc2)C2=CC(C)=NN(C)C(=S)N21`: the TGI in the assay on U251 CNS, in the assay with CCRF-CEM leukemia, in the assay with COLO 205 colon, with M14 melanoma, with SF-295 CNS and in the assay with SN12C renal was over 100 µM in each case. For the same compound, the TGI with OVCAR-8 ovarian, in the assay on HCT-116 colon, with IGROV1 ovarian and in the assay with DU-145 prostate was over 100 µM in each case.

Regarding `NCCCCc1cc(O)c2c(c1O)C(=O)c1ccccc1C2=O`, the TGI in the assay on U251 CNS was over 43 µM; with CCRF-CEM leukemia, 14.4 µM; with COLO 205 colon it was 10.4 µM; with M14 melanoma it was 33.6 µM; with SF-295 CNS it was 28.6 µM; with SN12C renal, 23 µM. Besides, the TGI worked out at 16.3 µM in the assay on OVCAR-8 ovarian, 18.1 µM in the assay on HCT-116 colon, 22.2 µM with IGROV1 ovarian and 26.8 µM in the assay on DU-145 prostate.

As for `NCCSC(c1ccccc1)c1ccccc1`, the TGI in the assay with U251 CNS is 33.3 µM; in the assay on CCRF-CEM leukemia it was over 100 µM; in the assay with COLO 205 colon, 38.7 µM; in the assay with M14 melanoma it was 29.9 µM; with SF-295 CNS, 35.7 µM; with SN12C renal, over 100 µM. Moreover, the TGI in the assay with OVCAR-8 ovarian turned out to be 44 µM; with HCT-116 colon, 30.9 µM; with IGROV1 ovarian, 27.8 µM; with DU-145 prostate, 93.5 µM.

Consider `Cc1nn(-c2ccccc2)c(C)c1/C=N/N=C1\SCC(=O)N1c1ccccc1`, for which the TGI was 69.3 µM in the assay on U251 CNS; over 100 µM with CCRF-CEM leukemia; 39.9 µM with COLO 205 colon; 60.7 µM with M14 melanoma; 53.5 µM in the assay on SF-295 CNS; over 100 µM in the assay on SN12C renal. Also, the TGI with OVCAR-8 ovarian was 55.1 µM; in the assay with HCT-116 colon it was 36.5 µM; in the assay with IGROV1 ovarian, 93.9 µM; in the assay on DU-145 prostate, over 100 µM.

`COc1cc2c(cc1O)CC[C@@H]1[C@@H]2CC[C@]2(C)[C@@H](OCCN(C)C)CC[C@@H]12`: the GI50 in the assay with U251 CNS was 0.219 µM; with COLO 205 colon it was 0.521 µM; with SN12C renal, 0.803 µM; in the assay with OVCAR-8 ovarian, 0.488 µM; in the assay with IGROV1 ovarian it was 0.818 µM; with DU-145 prostate, 0.182 µM. Also, the TGI was found to be 0.872 µM in the assay with U251 CNS; 1.17 µM with COLO 205 colon; 4.05 µM in the assay with SN12C renal; 5.88 µM in the assay with OVCAR-8 ovarian; 5.94 µM in the assay on IGROV1 ovarian; 5.35 µM in the assay on DU-145 prostate.

For `CC(=O)C1=C(C)N(c2ccc(C)cc2)C2(O)C=CC(=O)C3C(=O)N(c4ccccc4)C(=O)C132` (configuration not stated), the TGI in the assay on U251 CNS is 65.6 µM; in the assay on CCRF-CEM leukemia, over 100 µM; in the assay on COLO 205 colon, over 100 µM; in the assay on M14 melanoma, over 100 µM; in the assay on SF-295 CNS, 43.7 µM; with SN12C renal, 34.2 µM. Besides, the TGI in the assay on OVCAR-8 ovarian was 59.2 µM; in the assay on HCT-116 colon, over 100 µM; in the assay with IGROV1 ovarian, 22.3 µM; in the assay on DU-145 prostate, 74.3 µM.

In the case of `CC12CC3OC(=O)C1COC14OC5(C2C1=O)C(O)(CCC1C4CC(O)C2(O)CC=CC(=O)C12C)C(=O)OC35C` (configuration not stated), the TGI with U251 CNS, with CCRF-CEM leukemia, with COLO 205 colon, in the assay with M14 melanoma, in the assay on SF-295 CNS and in the assay on SN12C renal was over 100 µM each time. In addition, the TGI in the assay on OVCAR-8 ovarian, with HCT-116 colon, in the assay on IGROV1 ovarian and in the assay on DU-145 prostate was over 100 µM in each case.

Consider `CCC1CN(C(=O)c2ccccc2)C(Cc2c[nH]c3ccccc23)C(=O)C1CC(=O)OC` (configuration not stated), for which the TGI with U251 CNS, in the assay on CCRF-CEM leukemia, with COLO 205 colon, in the assay with M14 melanoma, in the assay on SF-295 CNS and with SN12C renal was over 100 µM in each case. Besides, the TGI in the assay with OVCAR-8 ovarian, in the assay with IGROV1 ovarian and in the assay on DU-145 prostate was over 100 µM throughout.

With `CCC(C)C1=C(OC(C)=O)[N+]2([O-])Oc3ccc(-c4c(OC(C)=O)c(OC(C)=O)c(-c5ccc(OC(C)=O)cc5)c(OC(C)=O)c4OC(C)=O)cc3OC2(C(C)CC)C(=O)N1OC(C)=O` (configuration not stated), the TGI with U251 CNS is over 50 µM; in the assay with CCRF-CEM leukemia, 39.3 µM; in the assay with COLO 205 colon it was over 50 µM; in the assay on M14 melanoma it was over 50 µM; with SF-295 CNS it was 21.8 µM; in the assay with SN12C renal, over 50 µM. Further, the TGI in the assay on OVCAR-8 ovarian was over 50 µM; with HCT-116 colon, 22.8 µM; with IGROV1 ovarian it was 34.4 µM; in the assay on DU-145 prostate, over 50 µM.

With `CCN(CC(=O)O)C(=O)c1cccnc1`, the TGI in the assay on U251 CNS, in the assay with M14 melanoma, in the assay on SF-295 CNS, in the assay on SN12C renal, with OVCAR-8 ovarian and in the assay with HCT-116 colon was over 100 µM throughout. Also, the TGI in the assay on IGROV1 ovarian and in the assay on DU-145 prostate was over 100 µM throughout.
